Results taken from US20250186445A1, “TREATMENT OF CANCER WITH MENIN INHIBITORS AND IMMUNO-ONCOLOGY AGENTS” (University Health Network, priority 2022, published 2025).
Entries after “also recorded” stand apart in the source; their conditions may differ.

Key:
MC38 cells = assay: Cytokine gene expression in MC38 cells in 2D culture treated with Compound I; format: cell-based; conditions: FIG. 5B
CT26 cells = assay: Cytokine gene expression in CT26 cells in 2D culture treated with Compound I; format: cell-based, mouse; conditions: FIG. 5A
[1] = system: CT26 colorectal carcinomas; assay: CT26 colorectal carcinoma tumor growth in immunocompetent (BALB/c) mice; format: in vivo, mouse
From the text: Effects of Compound I in combination with PD-L1/PD-1 immune checkpoint blockade on tumor growth were investigated in CT26 tumors.

CNc1nc(NC2CCN(Cc3ccc4c(cc(C#N)n4C[C@H](C)N4CCN(S(C)(=O)=O)CC4)c3C)CC2)c2cc(CC(F)(F)F)sc2n1 [Compound I]
cytokine gene expression (MC38 cells): induces cytokine gene expression | induction of cytokine-related genes (IL33, CXCL10, CXCL9, CD40, CCL4) (CT26 cells): Dose-dependent induction; also recorded: induces cytokine gene expression | tumor growth ([1]; BALB/c mice bearing CT26, 100 mg/kg orally QD, FIG. 6A): reduced tumor growth | CD8+ T-cell infiltration ([1]; CT26 tumors in BALB/c mice, FIGS. 6B-C): increased CD8+ T-cell infiltration | reduction in tumor growth with concomitant anti-CD8 antibody ([1]; CT26 tumors in BALB/c mice, concomitant anti-CD8 antibody, FIG. 6D): could be blocked | CT26 tumor growth, combination of Compound I and anti-PD-1 antibody ([1]; CT26 tumors, combination with anti-PD-1 antibody, FIG. 7): the combination enhanced the activity of anti-PD1 immunotherapy | CT26 tumor growth, single agent ([1]; CT26 tumors, each agent alone, FIG. 7): substantially reduced
